Twelve molecules from patent US9765308B2, “Aromatic prenyltransferase from cannabis” (priority 2009, dated 2017) can be followed below.

SMILES strings stand for the structures.

Experiment [1] has as its target T1, CsPT1 (Cannabis sativa, UniProt A0A455ZIK6). Put plainly: Prenyltransferase assay of recombinant CsPT1 with different aromatic acceptor substrates, geranyl diphosphate as prenyl donor. The experiment is classed as biochemical. Conditions: for Product yield (%): yield of prenylated products by HPLC peak area, yield of cannabigerolic acid and 5-geranyl olivetolic acid set to 100%. The protocol: (§1) The prenyltransferase assay for CsPT1 comprised 100 mM Tris-HCl (pH 7.5), 0.2 mM olivetolic acid, 1 mM geranyl diphosphate and 5 mM MgCl2 in a final volume 100 μl. The reaction was initiated by addition of a 5 μl aliquot of microsomal preparation (64 μg protein), either from insect cells or yeast. After incubation for 1 h at 37° C., the reaction was terminated by addition of 10 μl 6 N HCl and extracted twice with 200 μl of ethyl acetate. The organic phase was evaporated to dryness and the residue dissolved in 50 μl of methanol. A 20 μl aliquot was analyzed by HPLC using a Waters 2695 system equipped with photodiode array detector on a Sunfire C18 reversed phase column 3.5 μm (4.6×150 mm) at a column temperature of 30° C. The mobile phase at 1 ml/min consisted of 50% water (containing 0.1% trifluoroacetic acid [TFA] [v/v]) and 50% acetonitrile over 10 min, 50% to 100% acetonitrile over 10 min, 100% acetonitrile to 50% acetonitrile over 1 min, 50% acetonitrile and 50% water over 4 min. The products were detected at 270 nm with photodiode array detection.
The activity of the recombinant CsPT1 was assayed to determine its use of different aromatic acceptor substrates using geranyl diphosphate as the prenyl donor substrate. […] In Table 3, Product yield is the yield of prenylated products as measured by HPLC peak area with the yield of cannabigerolic acid and 5-geranyl olivetolic acid set to 100%. Phlorisovalerophenone has not been detected in cannabis. It has been shown that cannabinoids with short side-chains exist in cannabis (e.g. tetrahydrocannabivarinic acid having a propyl side-chain instead of the pentyl side-chain of THC acid (Shoyama 1984). Given that CsPT1 accepts a variety of aromatic acceptor substrates, this enzyme likely is able to prenylate analogs of olivetolic acid that have differing side-chain length.

Experiment [2] has as its target T1, CsPT1. Put plainly: Prenyltransferase assay of recombinant CsPT1 with different prenyl diphosphate donor substrates. Format: biochemical. Particulars: FIG. 6; n=3. As for the experimental part: FIG. 6 depicts use of different prenyl diphosphate donor substrates by recombinant CsPT1, where DMAPP is dimethylally diphosphate, IPP is isopenetnyl diphosphate, GPP is geranyl diphosphate, NPP is neryl diphosphate, FPP is farnesyl diphosphate, and GGPP is geranylgeranyl diphosphate. Bar represents mean+/− standard deviation (n=3).
as §1, with “detection. […]” for “detection.”

For the molecule `O=C(/C=C/c1ccc(O)cc1)c1c(O)cc(O)cc1O` [Chalconaringenin], the “Product yield (%)” value in experiment [1] is recorded as 0%.
Still for that read-out and setting: to `COc1cc(-c2cc(=O)c3c(O)cc(O)cc3o2)ccc1O` [Chrysoeriol] belongs 0%.
On the same count and under the same terms, to `CCCCCC(=O)Cc1cc(O)cc(=O)o1` [Hexanoyl triacetic acid lactone] belongs 0%; to `O=C(O)Cc1cc(O)ccc1O` [Homogentisic acid], 0%; to `O=c1cc(-c2ccc(O)c(O)c2)oc2cc(O)cc(O)c12` [Luteolin], 0%.
With `O=C1C[C@@H](c2ccc(O)cc2)Oc2cc(O)cc(O)c21` [Naringenin], in experiment [1], the “Geranylation of aromatic acceptor substrate by CsPT1” value is reported as “geranylated” and the “Product yield (%)” value stood at 31%.
The corresponding values for `CCCCCc1cc(O)cc(O)c1` [Olivetol] are “geranylated” and 30%.
For `CCCCCc1cc(O)cc(O)c1C(=O)O` [Olivetolic acid] the same measures were “geranylated” and 100%.
For `CC(C)CC(=O)c1c(O)cc(O)cc1O` [Phlorisovalerophenone] the same measures were “geranylated” and 250%.
On to `Oc1cc(O)cc(O)c1` [Phloroglucinol], for which, in experiment [1], the “Product yield (%)” value is given as 0%.
On to `Oc1ccc(C=Cc2cc(O)cc(O)c2)cc1` [Resveratrol], for which, in experiment [1], the “Geranylation of aromatic acceptor substrate by CsPT1” value is on record as “geranylated” and the “Product yield (%)” value is given as 32%.
On to `CC(C)=CCC/C(C)=C/COP(=O)(O)OP(=O)(O)O` [geranyl diphosphate], for which the “Use as prenyl donor substrate” value in experiment [2] is “only used geranyl diphosphate (GPP) as a prenyl donor”.
